Here are results for one compound from the NIST ThermoML archive (doi:10.1016/j.fluid.2012.09.027).

Numbers after ± are expanded uncertainties.

For data set [1] the following is noted: Crystal; DTA.
Data set [2] can be described thus: Molar enthalpy of transition or fusion. The following applies: Crystal; DSC.

Consider `CCOc1nc2cccc(C(=O)OC(C)OC(=O)OC3CCCCC3)c2n1Cc1ccc(-c2ccccc2)c(-c2nnn[nH]2)c1` (configuration not stated), for which the Normal melting temperature in data set [1] was 169 ± 1 °C. Moreover, in data set [2], the “Molar enthalpy of transition or fusion” value is 6.63 ± 0.189 kcal/mol.
